US7019001B2, “Substituted benzothiazole amide derivatives” (Hoffman-La Roche Inc., priority 2001, dated 2006)
Read-outs that look alike come from different tables or passages of the source.

Key:
[1] = target: T1, human adenosine A2A receptor (Homo sapiens, UniProt P29274); assay: [3H]-SCH-58261 binding assay, human adenosine A2A receptor (CHO cell membranes, SPA)
T1 construct: expressed in transfected cells; host or cells: CHO cells, semliki forest virus expression system; washed membrane pellet used
Protocol: Human Adenosine A2A Receptor
The human adenosine A2A receptor was recombinantly expressed in chinese hamster ovary (CHO) cells using the semliki forest virus expression system. Cells were harvested, washed twice by centrifugation, homogenised and again washed by centrifugation. The final washed membrane pellet was suspended in a Tris (50 mM) buffer containing 120 mM NaCl, 5 mM KCl, 2 mM CaCl2 and 10 mM MgCl2 (pH 7.4) (buffer A). The [^3H]-SCH-58261 (Dionisotti et al., 1997, Br J Pharmacol 121, 353; 1 nM) binding assay was carried out in 96-well plates in the presence of 2.5 μg of membrane protein, 0.5 mg of Ysi-poly-1-lysine SPA beads and 0.1 U adenosine deaminase in a final volume of 200 μl of buffer A. Non-specific binding was defined using xanthine amine congener (XAC; 2 μM). Compounds were tested at 10 concentrations from 10 μM–0.3 nM. All assays were conducted in duplicate and repeated at least two times. Assay plates were incubated for 1 hour at room temperature before centrifugation and then bound ligand determined using a Packard Topcount scintillation counter. IC50 values, the concentration where 50% of the […] binding is displaced, were calculated using a non-linear curve fitting program and Ki values calculated using the Cheng-Prussoff equation.

[2] = displacement of [3H]-SCH-58261 (1 nM), recombinant receptor in CHO membranes, Ki by Cheng-Prussoff equation, read-out: hA2 (pKi) (converted)

T1 sequence (P29274 whole entry): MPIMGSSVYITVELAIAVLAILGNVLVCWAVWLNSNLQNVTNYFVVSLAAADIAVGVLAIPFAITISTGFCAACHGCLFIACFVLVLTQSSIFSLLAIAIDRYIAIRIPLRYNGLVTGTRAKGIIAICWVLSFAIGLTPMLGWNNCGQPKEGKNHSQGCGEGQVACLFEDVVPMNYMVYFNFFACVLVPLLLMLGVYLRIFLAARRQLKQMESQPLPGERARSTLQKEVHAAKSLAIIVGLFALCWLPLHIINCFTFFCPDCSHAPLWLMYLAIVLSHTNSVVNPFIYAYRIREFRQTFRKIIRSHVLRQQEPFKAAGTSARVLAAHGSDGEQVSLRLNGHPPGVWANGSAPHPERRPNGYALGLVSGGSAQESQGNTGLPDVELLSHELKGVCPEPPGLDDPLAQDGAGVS

Ki [1, 2] [nM]	melting point [°C]	SMILES	other results
3.16	–	COc1ccc(N2CCOCC2)c2sc(NC(=O)N3C[C@@H]4C[C@H]3CO4)nc12 [Example 1, (1S,4S)-2-Oxa-5-aza-bicyclo[2.2.1]heptane-5-carboxylic acid (4-methoxy-7-morpholin-4-yl-benzothiazol-2-yl)-amide]	–
10	–	COc1ccc(N2CCOCC2)c2sc(NC(=O)N3CCC4(CCCCC4)CC3)nc12 [Example 10, 3-Aza-spiro[5.5]undecane-3-carboxylic acid (4-methoxy-7-morpholin-4-yl-benzothiazol-2-yl)-amide]	–
5.01	164 to 170	COc1ccc(N2CCOCC2)c2sc(NC(=O)N3CC4CCC3CO4)nc12 (stereo not shown) [Example 30, 2-Oxa-5-aza-bicyclo[2.2.2]octane-5-carboxylic acid (4-methoxy-7-morpholin-4-yl-benzothiazol-2-yl)-amide]	–
12.6	198 to 200	COc1ccc(N2CCOCC2)c2sc(NC(=O)N(C)C3CCCCCC3)nc12 [Example 35, 1-Cycloheptyl-3-(4-methoxy-7-morpholin-4-yl-benzothiazol-2-yl)-1-methyl-urea]	–
6.31	–	COc1ccc(N2CCOCC2)c2sc(NC(=O)N3CCC4(CCCC4)CC3)nc12 [Example 11, 8-Aza-spiro[4.5]decane-8-carboxylic acid (4-methoxy-7-morpholin-4-yl-benzothiazol-2-yl)-amide]	–
3.16	–	Cc1ccc(CC2(O)CCN(C(=O)Nc3nc4c(Cl)ccc(N5CCCCC5)c4s3)CC2)cc1 [Example 20, 4-Hydroxy-4-(4-methyl-benzyl)-piperidine-1-carboxylic acid (4-chloro-7-piperidin-1-yl-benzothiazol-2-yl)-amide]	–
15.8	–	COc1ccc(N2CCOCC2)c2sc(NC(=O)N3CCC(CNS(C)(=O)=O)CC3)nc12 [Example 16, 4-(Methanesulfonylamino-methyl)-piperidine-1-carboxylic acid (4-methoxy-7-morpholin-4-yl-benzothiazol-2-yl)-amide]	–
3.98	–	COc1ccc(N2CCCCC2)c2sc(NC(=O)N3CCC4(CCCO4)CC3)nc12 [Example 19, 1-Oxa-8-aza-spiro[4.5]decane-8-carboxylic acid (4-methoxy-7-piperidin-1yl-benzothiazol-2-yl)-amide]	–
10	189 to 192	COc1ccc(N2CCOCC2)c2sc(NC(=O)N(C)C3CCC(F)(F)CC3)nc12 [Example 24, 1-(4,4-Difluoro-cyclohexyl)-3-(4-methoxy-7-morpholin-4-yl-benzothiazol-2-yl)-1-methyl-urea]	–
5.01	149	COc1ccc(N2CCOCC2)c2sc(NC(=O)N3C[C@@H]4CC[C@H]3C4)nc12 [Example 33, (1S,4R)-2-Aza-bicyclo[2.2.1]heptane-2-carboxylic acid (4-methoxy-7-morpholin-4-yl-benzothiazol-2-yl)-amide]	–
12.6	–	COc1ccc(N2CCOCC2)c2sc(NC(=O)NC3CCOCC3)nc12 [Example 2, 1-(4-Methoxy-7-morpholin-4-yl-benzothiazol-2-yl)-3-(tetrahydro-pyran-4-yl)-urea]	–
7.94	191 to 194	COc1ccc(N2CCOCC2)c2sc(NC(=O)NC3CCCC3)nc12 [Example 37, 1-Cyclopentyl-3-(4-methoxy-7-morpholin-4-yl-benzothiazol-2-yl)-urea]	–
15.8	–	O=C(Nc1nc2c(Cl)ccc(N3CCCCC3)c2s1)N1CCC(Cc2ccccc2)CC1 [Example 22, 4-Benzyl-piperidine-1-carboxylic acid (4-chloro-7-piperidin-1-yl-benzothiazol-2-yl)-amide]	–
7.94	–	COc1ccc(N2CCOCC2)c2sc(NC(=O)N3CCN(c4ccccc4)CC3)nc12 [Example 7, 4-Phenyl-piperazine-1-carboxylic acid (4-methoxy-7-morpholin-4-yl-benzothiazol-2-yl)-amide]	–
2.51	–	O=C(Nc1nc2c(Cl)ccc(N3CCCCC3)c2s1)NC1CCCCC1 [Example 21, 1-(4-Chloro-7-piperidin-1-yl-benzothiazol-2-yl)-3-cyclohexyl-urea]	–

Continued, molecule first:

SMILES	Ki [1, 2] [nM]	melting point [°C]	other results
COc1ccc(N2CCOCC2)c2sc(NC(=O)N3CC4CC[C@@](C)(C3)C4(C)C)nc12 [Example 26, (1R)-1,8,8-Trimethyl-3-aza-bicyclo[3.2.1]octane-3-carboxylic acid (4-methoxy-7-morpholin-4-yl-benzothiazol-2-yl)-amide]	–	185 to 189	–
COc1ccc(N2CCOCC2)c2sc(NC(=O)N(C)C3CCOCC3)nc12 [Example 34, 3-(4-Methoxy-7-morpholin-4-yl-benzothiazol-2-yl)-1-methyl-1-(tetrahydro-pyran-4-yl)-urea]	15.8	240 to 242	–
COc1ccc(N2CCOCC2)c2sc(NC(=O)N(C)C3CCCCC3)nc12 [Example 9, 1-Cyclohexyl-3-(4-methoxy-7-morpholin-4-yl-benzothiazol-2-yl)-1-methyl-urea]	12.6	–	–
COc1ccc(N2CCOCC2)c2sc(NC(=O)N3CCC([C@H](C)O)CC3)nc12 [Example 15, (S)-4-(1-Hydroxy-ethyl)-piperidine-1-carboxylic acid (4-methoxy-7-morpholin-4-yl-benzothiazol-2-yl)-amide]	7.94	–	–
COc1ccc(N2CCOCC2)c2sc(NC(=O)N(C)[C@H]3CC[C@H](OC)CC3)nc12 [Example 32, (trans)-1-(4-Methoxy-cyclohexyl)-3-(4-methoxy-7-morpholin-4-yl-benzothiazol-2-yl)-1-methyl-urea]	25.1	211 to 213	–
COc1ccc(N2CCOCC2)c2sc(NC(=O)N3CCC([C@@H](C)O)CC3)nc12 [Example 14, (R)-4-(1-Hydroxy-ethyl)-piperidine-1-carboxylic acid (4-methoxy-7-morpholin-4-yl-benzothiazol-2-yl)-amide]	7.94	–	–
COc1ccc(N2CCOCC2)c2sc(NC(=O)N3CCC4(CCNC4=O)CC3)nc12 [Example 5, 1-Oxo-2,8-diaza-spiro[4.5]decane-8-carboxylic acid (4-methoxy-7-morpholin-4-yl-benzothiazol-2-yl)-amide]	6.31	–	–
COc1ccc(N2CCOCC2)c2sc(NC(=O)N3CCC4(CCN(C)C4=O)CC3)nc12 [Example 4, 2-Methyl-1-oxo-2,8-diaza-spiro[4.5]decane-8-carboxylic acid (4-methoxy-7-morpholin-4-yl-benzothiazol-2-yl)-amide]	6.31	–	–
COc1ccc(N2CCOCC2)c2sc(NC(=O)N3CC4CCC3CC4)nc12 [Example 12, 2-Aza-bicyclo[2.2.2]octane-2-carboxylic acid (4-methoxy-7-morpholin-4-yl-benzothiazol-2-yl)-amide]	2.51	–	–
COc1ccc(N2CCOCC2)c2sc(NC(=O)N(C)C3CCCC3)nc12 [Example 36, 1-Cyclopentyl-3-(4-methoxy-7-morpholin-4-yl-benzothiazol-2-yl)-1-methyl-urea]	7.94	110 to 125	–
COc1ccc(N2CCOCC2)c2sc(NC(=O)N3CCCOCC3)nc12 [Example 28, Oxazepane-4-carboxylic acid (4-methoxy-7-morpholin-4-yl-benzothiazol-2-yl)-amide]	–	–	hA2 (pKi) ([1]; displacement of [3H]-SCH-58261 (1 nM), recombinant receptor in CHO membranes, Ki by Cheng-Prussoff equation): 7.9
COc1ccc(N2CCOCC2)c2sc(NC(=O)N(C)[C@H]3CC[C@H](O)CC3)nc12 [Example 27, (trans)-1-(4-Hydroxy-cyclohexyl)-3-(4-methoxy-7-morpholin-4-yl-benzothiazol-2-yl)-1-methyl-urea]	12.6	158 to 162	–
COc1ccc(N2CCOCC2)c2sc(NC(=O)N(C)[C@H]3CC[C@@H](O)CC3)nc12 [Example 29, (cis)-1-(4-Hydroxy-cyclohexyl)-3-(4-methoxy-7-morpholin-4-yl-benzothiazol-2-yl)-1-methyl-urea]	12.6	169 to 171	–
COc1ccc(N2CCOCC2)c2sc(NC(=O)N3CCC4(CCCO4)CC3)nc12 [Example 13, 1-Oxa-8-aza-spiro[4.5]decane-8-carboxylic acid (4-methoxy-7-morpholin-4-yl-benzothiazol-2-yl)-amide]	2.51	–	–
COc1ccc(N2CCOCC2)c2sc(NC(=O)N3CCC(CO)(Cc4ccccc4)CC3)nc12 [Example 8, 4-Benzyl-4-hydroxymethyl-piperidine-1-carboxylic acid (4-methoxy-7-morpholin-4-yl-benzothiazol-2-yl)-amide]	3.98	–	–
COc1ccc(N2CCOCC2)c2sc(NC(=O)N(C)[C@H]3CC[C@@H](F)CC3)nc12 [Example 23, 1-(4cis-Fluoro-cyclohexyl)-3-(4-methoxy-7-morpholin-4-yl-benzothiazol-2-yl)-1-methyl-urea]	7.94	201 to 204	–
COc1ccc(N2CCOCC2)c2sc(NC(=O)N3[C@@H]4CC[C@H]3C[C@@H](O)C4)nc12 [Example 3, 3-endo-Hydroxy-8-aza-bicyclo[3.2.1]octane-8-carboxylic acid (4-methoxy-7-morpholin-4-yl-benzothiazol-2-yl)-amide]	–	–	Ki [1]: 7.94 nM
